In PMC11475570, “Impact of Optimized Ku–DNA Binding Inhibitors on the Cellular and In Vivo DNA Damage Response” (Cancers, 2024):

Legend:
[1] = molecular target: T1, Ku70–Ku80 (Homo sapiens, UniProt P12956+P13010); assay: nanoDSF thermostability and aggregation; type: binding; conditions: Ku 5 µM, 5 µM 3392, up to 25 µM no additional change
T1 construct: made in house; host or cells: baculovirus-infected Sf9 cells
Protocol: The thermostability and aggregation propensity of Ku was assessed using a Prometheus Panta nanoDSF instrument (NanoTemper Technologies GmbH, München, Germany). High-sensitivity capillaries were filled with Ku (10 μL each, experiments in triplicate) at a concentration of 5 µM into the instrument. We titrated against ligand 3392 covering a concentration ranging from 0 to 30 µM with measurements collected at a 1 °C-per-minute scan rate from 25 to 95 °C. Thermal unfolding was assessed by the increase in intrinsic tryptophan fluorescence detected at 350 and 330 nm following excitation at 280 nm. Inflection points in the thermal denaturation curves were identified using the first derivatives of the ratio r = fluorescence (350 nm)/fluorescence (330 nm). We measured dynamic light scattering (DLS) and turbidity throughout the heating ramp using back reflection to characterize protein aggregation. We determined aggregation temperatures using turbidity variations and increases in particle sizes.

[2] = tested on: A549 cells; assay: γH2AX single-agent DNA damage (Western blot, immunofluorescence); type: cell-based, Human; conditions: Supplemental Figure S6
Source text: Supplementary Figure S6. GL-3392 single agent effect on DNA damage in NSCLC.
(A) Western blot analysis from A549 cells nuclear extracts. (B) Densitometric analysis of bands from western blot immunodetection. The original membranes can be found in File S1 (Appendix for Supplementary Figure S6A). (C) γH2AX expression levels dete rmined by Immunofluorescence. IF staining of DAPI nuclear staining (blue) and γH2AX (pS139) (red). Scale bars: 10µm. (D) Quantitation of integrated fluorescence intensity of γH2AX foci represented as the median of 300 nuclei per field. ns: not significant, ****p <0.0001 as calculated by one-way ANOVA with Dunnett’s multiple comparisons test. […]

[3] = molecular target: T1, Ku70–Ku80; assay: Microscale thermophoresis (MST); type: binding; conditions: labeled Ku 5 nM, 5% DMSO, single-site fit
Protocol: Ku heterodimer was labeled using the Monolith NT™ Protein Labeling Kit RED-NHS (2nd generation amine reactive, NanoTemper Technologies GmbH, MO-L011, München, Germany), following the manufacturer’s protocol. Ku-DBi 3392 powder was resuspended in 100% DMSO, and the concentration was adjusted to 50 mM after UV absorbance measurement (absorbance at 417 nm with an extension coefficient equal to 15.2 mM^−1 cm^−1). The ligand stock solution was sonicated in an ultrasonic bath before preparations of the dilution series. The MST and Differential Scanning Fluorometry (DSF) assays contain 5% DMSO to fit the DMSO concentration at the highest ligand concentration (200 µM). The labeled protein (5 nM) was incubated with ligand 3392 ranging from 98 nM to 200 µM in a 12-point 1:1 dilution series. Protein–ligand solutions were incubated for 30 min at room temperature before MST measurements, which were performed in triplicate. Proteins were transferred to capillaries (Monolith NT. Automated Premium Capillary Chips), and binding was analyzed with a Monolith NT. Automated pico-RED device using MO. Control Software with nano-red excitation, LED light adjusted to 20% excitation power, and infrared laser (MST power) set to medium. The dissociation constants (KD) were determined with MO. […]

T1 sequence (P12956 whole entry): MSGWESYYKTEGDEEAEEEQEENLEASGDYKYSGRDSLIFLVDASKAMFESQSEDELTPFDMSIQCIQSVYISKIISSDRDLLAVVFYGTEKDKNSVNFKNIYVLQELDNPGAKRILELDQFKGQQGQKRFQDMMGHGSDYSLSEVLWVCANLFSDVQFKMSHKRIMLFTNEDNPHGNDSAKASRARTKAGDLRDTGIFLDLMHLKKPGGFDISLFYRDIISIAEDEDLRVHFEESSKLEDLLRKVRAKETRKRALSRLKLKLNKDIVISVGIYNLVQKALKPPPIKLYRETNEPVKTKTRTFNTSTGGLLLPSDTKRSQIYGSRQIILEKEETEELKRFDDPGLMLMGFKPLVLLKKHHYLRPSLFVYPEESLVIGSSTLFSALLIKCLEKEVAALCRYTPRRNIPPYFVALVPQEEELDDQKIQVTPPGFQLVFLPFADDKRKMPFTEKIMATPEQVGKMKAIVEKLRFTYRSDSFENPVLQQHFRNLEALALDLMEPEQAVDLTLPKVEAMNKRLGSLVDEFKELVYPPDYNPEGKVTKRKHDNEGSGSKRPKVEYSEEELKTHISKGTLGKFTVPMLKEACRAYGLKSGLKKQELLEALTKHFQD
T1 sequence (P13010 whole entry): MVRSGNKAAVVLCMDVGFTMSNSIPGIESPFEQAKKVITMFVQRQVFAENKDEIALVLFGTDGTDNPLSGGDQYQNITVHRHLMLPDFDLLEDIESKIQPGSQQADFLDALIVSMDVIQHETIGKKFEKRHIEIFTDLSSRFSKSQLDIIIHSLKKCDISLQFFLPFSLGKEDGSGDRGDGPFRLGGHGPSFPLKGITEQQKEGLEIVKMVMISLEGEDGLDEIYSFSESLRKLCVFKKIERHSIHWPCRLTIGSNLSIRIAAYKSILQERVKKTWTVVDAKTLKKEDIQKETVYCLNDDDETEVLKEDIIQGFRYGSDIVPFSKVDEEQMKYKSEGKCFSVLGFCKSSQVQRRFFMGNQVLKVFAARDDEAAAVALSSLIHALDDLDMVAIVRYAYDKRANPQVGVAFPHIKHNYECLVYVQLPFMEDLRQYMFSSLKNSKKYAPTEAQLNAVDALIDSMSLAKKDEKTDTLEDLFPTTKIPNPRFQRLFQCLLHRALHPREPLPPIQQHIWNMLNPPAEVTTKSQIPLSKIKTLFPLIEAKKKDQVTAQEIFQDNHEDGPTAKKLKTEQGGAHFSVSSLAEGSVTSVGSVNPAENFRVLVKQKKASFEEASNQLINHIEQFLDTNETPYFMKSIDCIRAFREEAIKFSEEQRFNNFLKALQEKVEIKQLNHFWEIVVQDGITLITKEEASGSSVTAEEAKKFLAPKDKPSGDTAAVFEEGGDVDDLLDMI

Thermal stability of Ku [1]: induced a shift in thermal stability
Kd [3]: 2100 ± 300 nM
Structure (SMILES): COc1ccc(-c2ccc(/C=C3\C(=O)N(c4cccc(C(=O)O)c4)c4ccccc43)o2)cc1C(=O)Nc1cccc(OC(F)(F)F)c1 [GL-3392]
Induction of direct DNA damage, single agent [2]: cannot be attributed to induction of direct DNA damage
